Test results reported in US9550000B2, “Compositions, methods, and systems for the synthesis and use of imaging agents” (Lantheus Medical Imaging, Inc., priority 2011, dated 2017).

Columns and labels:
[1] = system: noradrenaline transporter (NAT) in SK-N-SH cells; assay: Competitive inhibition of Imaging Agent-1 uptake in SK-N-SH cells; assay type: cell-based, human; details: Homo sapiens, 1 h, non-radioactive competitor 0.1-100 μM, 37° C., 60 minutes, read-out: IC50 for inhibition of Imaging Agent-1 cell uptake
Procedure: For the competitive inhibition assay, Imaging Agent-1 at 3.7 kBq was incubated in SK-N-SH cells with various concentrations (0.1, 1, 10, or 100 μM) of non-radioactive NA, MIBG or ^19F-Imaging Agent-1 (self) at 37° C. for 60 minutes. Similarly, following the incubation, Imaging Agent-1 cell uptake was determined. The IC50 value of each agent was determined using GraphPad software (v5).

[2] = Dofetilide induced ECG changes in sham control and regional cardiac denervated rabbits; assay type: in vivo, rabbit; details: for Dofetilide induced events: PVC / Dofetilide induced events: TdP: 4 μg/kg/min iv infusion
Procedure: Dofetilide is an antiarrhythmic drug used clinically and known to cause QTc prolongation and possible TdP. The role of cardiac denervation in dofetilide induced changes in QTc interval, premature ventricular contraction (PVC) and TdP was assessed in sham control and RCSD rabbits at 3 weeks after surgery. Rabbits were anesthetized with ketamine (40 mg/kg, im) and xylazine (9 mg/kg, im), and dofetilide (1 and 4 μg/kg/min, Haorui Pharma-Chem Inc. Edison, N.J.) was infused for 10 minutes via a catheter in the marginal ear vein. Electrocardiogram (ECG) in lead II configuration was recorded with Ponemah system (v4.3, Data Science International) before and during the drug infusion. Heart rate (HR) and QT interval were derived from ECG waveforms. The QT interval was corrected by Fridericia method (QTcf=QT/RR^1/3).

[3] = humans, 500 μg twice a day; cited from earlier work

SMILES | IC50 [1] [nM] | Dofetilide induced events: PVC ([2]; Denervated rabbits (n = 8)) | Dofetilide induced events: TdP ([2]; Denervated rabbits (n = 8)) | Dofetilide induced events: PVC ([2]; Sham rabbits (n = 6)) | Dofetilide induced events: TdP ([2]; Sham rabbits (n = 6)) | ECG changes on intravenous administration ([2]; sham control and RCSD rabbits, 1 and 4 μg/kg/min for 10 minutes) | bioavailability [3] [%]
NC[C@H](O)c1ccc(O)c(O)c1 [NA, noradrenaline] | 1090 |  |  |  |  |  | 
CN(CCOc1ccc(NS(C)(=O)=O)cc1)CCc1ccc(NS(C)(=O)=O)cc1 [dofetilide] |  | 5 (63%) | 2 (25%) | 3 (50%) | 1 (17%) | induced bradycardia and QT prolongation | > 90
